Experimental findings from patent US11634391B2, “Compounds which are inhibitors of Notum” (UCL BUSINESS LTD, priority 2018, dated 2023) are described below.

This experiment addresses notum carboxyesterase enzyme (Homo sapiens (Human), UniProt Q6P988). Description: Biochemical Notum Enzymatic Activity Assay (OPTS substrate, fluorescence). The settings on record: 2 μM OPTS solution, 2.38 nM notum enzyme solution, 1 hour incubation at room temperature, fluorescence ex 485 nm / em 520 nm; n≥2. From the text:
Plate layout and measured fluorescence values were input into Dotmatics Studies data management tool.

Bounds are passed on as bounds.

Chain of notum carboxyesterase enzyme (Q6P988 20-496): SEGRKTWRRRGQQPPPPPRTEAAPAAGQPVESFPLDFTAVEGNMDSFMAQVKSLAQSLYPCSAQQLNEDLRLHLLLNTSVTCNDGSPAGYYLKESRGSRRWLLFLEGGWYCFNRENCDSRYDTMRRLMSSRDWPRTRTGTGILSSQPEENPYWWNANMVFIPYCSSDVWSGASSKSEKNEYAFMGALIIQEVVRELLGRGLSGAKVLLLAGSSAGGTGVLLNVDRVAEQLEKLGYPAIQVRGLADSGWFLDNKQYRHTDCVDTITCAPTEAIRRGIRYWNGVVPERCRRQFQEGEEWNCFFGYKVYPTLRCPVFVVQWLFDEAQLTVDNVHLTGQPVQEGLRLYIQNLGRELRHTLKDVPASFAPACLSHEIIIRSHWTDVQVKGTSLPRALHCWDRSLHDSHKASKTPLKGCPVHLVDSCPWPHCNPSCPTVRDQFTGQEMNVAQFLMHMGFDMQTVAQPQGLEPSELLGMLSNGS

As usually defined, the IC50 is the midpoint of a concentration-inhibition curve. Lower therefore signals inhibition by little substance. `COc1cc(-n2cc(CO)nn2)ccc1Cl` [Compound 30, (1-(4-chloro-3-methoxyphenyl)-1H-1,2,3-triazol-4-yl)methanol]: inhibition was half-maximal at 6.61 µM (IC50).
Consider `NCc1cc(-c2cccc(Cl)c2)no1` [Compound 147, (3-(3-chlorophenyl)isoxazol-5-yl)methanamine], for which the IC50 stood at 15.2 µM.
Take `Clc1ccc(-n2ccnc2)cc1` [Compound 149, 1-(4-chlorophenyl)imidazole]: the IC50 turned out to be 5.16 µM.
In turn, `Oc1nnc(-c2cc(C3CC3)cc(C(F)(F)F)c2)o1` [Compound 211, 5-[3-cyclopropyl-5-(trifluoromethyl)phenyl]-1,3,4-oxadiazol-2-ol] returned an IC50 of 0.433 µM.
Take `FC(F)(F)c1cc(-n2cnnn2)ccc1Cl` [Compound 215, 1-[4-chloro-3-(trifluoromethyl)phenyl]tetrazole]: 0.457 µM corresponded to half-maximal inhibition (IC50).
`CC(C)c1ccc(-n2cnnn2)cc1` [Compound 217, 1-(4-isopropylphenyl)tetrazole]: inhibition was half-maximal at 21.4 µM (IC50). Compared with the last compound, the IC50 is about 47-fold higher.
In the case of `OCc1cn(-c2ccc(Cl)c(Cl)c2)nn1` [Compound 19, (1-(3,4-dichlorophenyl)-1H-1,2,3-triazol-4-yl)methanol], the IC50 came out at 0.484 µM. Against the preceding compound, the IC50 is about 44-fold lower.
Turning to `CC(O)Cc1cn(-c2ccc(Cl)c(C(F)(F)F)c2Cl)nn1` (stereo not shown) [Compound 305, 1-[1-[2,4-dichloro-3-(trifluoromethyl)phenyl]triazol-4-yl]propan-2-ol], the IC50 worked out at 1.32 µM. Against the preceding compound, the IC50 is about 2.7-fold higher.
Next, `Clc1ccc(-c2cnco2)cc1` [Compound 151, 5-(4-chlorophenyl)oxazole]: 5.74 µM; `c1nnc(-c2ccc(C3CC3)nc2)o1` [Compound 226, 2-(6-cyclopropyl-3-pyridyl)-1,3,4-oxadiazole]: 42.2 µM.
In the case of `O=c1cc(-c2ccccc2)cc[nH]1` [Compound 236, 4-phenylpyridin-2(1H)-one], the IC50 was found to be 14.1 µM.
“4-(4-(1,3,4-oxadiazol-2-yl)-2-(trifluoromethyl)phenyl)pyrrolidine [Compound 280]” registered an IC50 of 0.405 µM.
Regarding `FC(F)(F)c1ccc(-c2c[nH]nn2)cc1C(F)(F)F` [Compound 49, 4-(3,4-bis(trifluoromethyl)phenyl)-1H-1,2,3-triazole], half-maximal inhibition (IC50) required 0.008 µM.
For `CC(C)(O)c1cn(-c2ccc(Cl)c(Cl)c2)nn1` [Compound 41, 2-(1-(3,4-dichlorophenyl)-1H-1,2,3-triazol-4-yl)propan-2-ol], the IC50 was > 10 µM.
Compound `Oc1c(F)cc(F)cc1-c1cc[nH]n1` [Compound 52, 2,4-difluoro-6-(1H-pyrazol-3-yl)phenol] displayed an IC50 of 3.27 µM.
Take `NCc1cn(-c2ccccc2)nn1` [Compound 39, (1-phenyl-1H-1,2,3-triazol-4-yl)methanamine]: inhibition was half-maximal at 4.87 µM (IC50). This IC50 and that of the compound before are within 1.5-fold of each other.
`Clc1cccc(-c2cc[nH]n2)c1` [Compound 54, 3-(3-chlorophenyl)-1H-pyrazole] showed an IC50 of 17.7 µM. This IC50 lies about 3.6-fold higher than the previous one.
In turn, `O=C(O)c1cn(-c2ccc(Cl)c(C(F)(F)F)c2)nn1` [Compound 58, 1-(4-chloro-3-(trifluoromethyl)phenyl)-1H-1,2,3-triazole-4-carboxylic acid] gave an IC50 of 0.97 µM.
The compound `COc1nnc(-c2cccc(Cl)c2)o1` [Compound 176, 2-(3-chlorophenyl)-5-methoxy-1,3,4-oxadiazole] yielded an IC50 of 5.36 µM.
Consider `FC(F)(F)c1cc(-n2ccnn2)ccc1N1CCCC1` [Compound 286, 1-(4-(pyrrolidin-1-yl)-3-(trifluoromethyl)phenyl)-1H-1,2,3-triazole], for which it took 0.862 µM to reach half-maximal inhibition (IC50).
`O=C(O)c1cc(-c2ccc(Cl)cc2)c[nH]1` [Compound 160, 4-(4-chlorophenyl)-1H-pyrrole-2-carboxylic acid] returned a concentration for half-maximal inhibition (IC50) of 21 µM.
In the case of `Oc1nnc(-c2cccc(C(F)(F)F)n2)o1` [Compound 206, 5-[6-(trifluoromethyl)-2-pyridyl]-1,3,4-oxadiazol-2-ol], the IC50 is > 23.1 µM.
Compound `Cc1cn(-c2ccc(Cl)c(C(F)(F)F)c2Cl)nn1` [Compound 301, 1-(2,4-dichloro-3-(trifluoromethyl)phenyl)-4-methyl-1H-1,2,3-triazole] gave an IC50 of 0.108 µM.
Next, `ClCc1nnc(-c2ccc(Cl)c(Cl)c2)o1` [Compound 125, 2-(chloromethyl)-5-(3,4-dichlorophenyl)-1,3,4-oxadiazole]: 61 µM.
In turn, `O=C(O)c1cn(-c2ccc(Cl)c(C(F)(F)F)c2Cl)nn1` [Compound 304, 1-[2,4-dichloro-3-(trifluoromethyl)phenyl]triazole-4-carboxylic acid] returned an IC50 of 0.0303 µM. This IC50 is about 2000-fold lower than that of the compound before.
Next, `Cn1ncc2ccc(-n3cc(CO)nn3)cc21` [Compound 15, (1-(1-methyl-1H-indazol-6-yl)-1H-1,2,3-triazol-4-yl)methanol]: 86.1 µM; `CC(=O)NCc1cn(-c2ccc(Cl)c(Cl)c2)nn1` [Compound 42, N-((1-(3,4-dichlorophenyl)-1H-1,2,3-triazol-4-yl)methyl)acetamide]: 19.5 µM; `FC(F)(F)c1cc(-c2nnn[nH]2)ccc1Cl` [Compound 212, 5-[4-chloro-3-(trifluoromethyl)phenyl]-1H-tetrazole]: 21 µM.
